Assay [1] has as its system MCF7. Nature of the assay: Cytotoxicity against human MCF7 cells assessed as growth inhibition after 72 hrs by MTS/PMS assay. The assay is classed as functional, cell-based. The note with it: MCF7, 72 h.
In assay [2] the target is T1, Heat shock protein HSP90 (Homo sapiens) (UniProt P07900+P08238). Nature of the assay: Inhibition of HSP90 in human MCF7 cells assessed as pAkt degradation after 24 hrs by Western blot analysis. The assay is classed as cell-based.
Assay [3] addresses T1, Heat shock protein HSP90 (Homo sapiens). Nature of the assay: Inhibition of HSP90 in human MCF7 cells assessed as Her2 degradation after 24 hrs by Western blot analysis. The assay is classed as cell-based.
Assay [4] shares this target. Nature of the assay: Inhibition of HSP90 in human MCF7 cells assessed as Cdk6 degradation after 24 hrs by Western blot analysis. The assay is classed as cell-based.
Assay [5] shares this target. Nature of the assay: Inhibition of HSP90 in human MCF7 cells assessed as Raf degradation after 24 hrs by Western blot analysis. The assay is classed as cell-based. On the technique in general: Immunoblotting shows a protein as a band on a membrane.
For assay [6], the system named is MCF7. Nature of the assay: Change in Cdc37 expression in human MCF7 cells at 0.01 to 10 uM after 24 hrs by Western blot analysis. The assay is classed as functional, cell-based.
Assay [7] relates to MCF7. Nature of the assay: Change in p23 expression in human MCF7 cells at 0.01 to 10 uM after 24 hrs by Western blot analysis. The assay is classed as functional, cell-based.
For assay [8], the target named is T1, Heat shock protein HSP90 (Homo sapiens). Nature of the assay: Inhibition of HSP90 in human MCF7 cells assessed as disruption of interaction with Cdc37 at 0.5 times to 5 times IC50 after 24 hrs by co-immunoprecipitation assay. The assay is classed as cell-based.
Assay [9] has the same target. Nature of the assay: Inhibition of HSP90 in human MCF7 cells assessed as disruption of interaction with p23 at 0.5 times to 5 times IC50 after 24 hrs by co-immunoprecipitation assay. The assay is classed as cell-based.
Assay [10] has the same target. Nature of the assay: Inhibition of HSP90 in human MCF7 cells assessed as induction of heat shock response-mediated HSP27 production at 5 times to 10 times IC50 after 24 hrs by Western blot analysis relative to vehicle-treated control. The assay is classed as cell-based.
Assay [11] has the same target. Nature of the assay: Inhibition of HSP90 in human MCF7 cells assessed as pAkt degradation at 0.5 times to 5 times IC50 after 24 hrs by Western blot analysis. The assay is classed as cell-based.
Assay [12] has the same target. Nature of the assay: Inhibition of HSP90 in human MCF7 cells assessed as Her2 degradation at 0.5 times to 5 times IC50 after 24 hrs by Western blot analysis. The assay is classed as cell-based.
The target is the same in assay [13]. Nature of the assay: Inhibition of HSP90 in human MCF7 cells assessed as Cdk6 degradation at 0.5 times to 5 times IC50 after 24 hrs by Western blot analysis. The assay is classed as cell-based.
For assay [14] the target is unchanged. Nature of the assay: Inhibition of HSP90 in human MCF7 cells assessed as Raf degradation at 0.5 times to 5 times IC50 after 24 hrs by Western blot analysis. The assay is classed as cell-based.
Assay [15] shares this target. Nature of the assay: Inhibition of HSP90 in human MCF7 cells assessed as induction of heat shock response-mediated HSP90 production at 0.5 times to 5 times IC50 after 24 hrs by Western blot analysis. The assay is classed as cell-based.
For assay [16] the target is unchanged. Nature of the assay: Inhibition of HSP90 in human MCF7 cells assessed as induction of heat shock response-mediated HSP70 production at 0.5 times to 5 times IC50 after 24 hrs by Western blot analysis. The assay is classed as cell-based.
Assay [17] shares this target. Nature of the assay: Inhibition of HSP90 in human MCF7 cells assessed as induction of heat shock response-mediated HSP27 production at 0.5 times to 5 times IC50 after 24 hrs by Western blot analysis. The assay is classed as cell-based.
Assay [18] concerns MCF7. Nature of the assay: Change in Cdc37 expression in human MCF7 cells at 5 times IC50 after 24 hrs by Western blot analysis. The assay is classed as functional, cell-based.
The subject of assay [19] is MCF7. Nature of the assay: Change in p23 expression in human MCF7 cells at 5 times IC50 after 24 hrs by Western blot analysis. The assay is classed as functional, cell-based.
The target in assay [20] is T2, Prostaglandin E synthase 3 (Homo sapiens) (UniProt Q15185).
T2 sequence (whole entry): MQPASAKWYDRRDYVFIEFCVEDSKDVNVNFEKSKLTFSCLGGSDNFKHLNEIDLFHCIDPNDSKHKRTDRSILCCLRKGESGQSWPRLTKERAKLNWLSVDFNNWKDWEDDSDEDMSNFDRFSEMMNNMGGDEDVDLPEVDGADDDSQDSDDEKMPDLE
Nature of the assay: Binding affinity to p23 in human MCF7 cells assessed as inhibition of interaction with HSP90 at 5 times IC50 after 24 hrs by co-immunoprecipitation assay. The assay is classed as cell-based.

The source made the active and inactive calls. No cut-off for these calls is given here.

The results in this text go back to ChEMBL document CHEMBL3576813, “Cucurbitacin D Is a Disruptor of the HSP90 Chaperone Machinery” (J Nat Prod, 2015).

As a reminder, the IC50 is the point on the concentration scale where inhibition reaches its midpoint. With `CC(C)(O)/C=C/C(=O)[C@](C)(O)[C@H]1[C@H](O)C[C@@]2(C)[C@@H]3CC=C4[C@@H](CC(=O)[C@H](O)C4(C)C)[C@]3(C)C(=O)C[C@]12C`, in the assay on MCF7 [1] (read-out: IC50), the IC50 is 718 nM. The inhibition result in assay [2], in assay [3], in assay [4] and in assay [5] was “Dose-dependent effect” in each case. For the same molecule, the outcome with MCF7 [6] and in the assay on MCF7 [7] was inactive. Moreover, the inhibition result in assay [8] and in [9] was “inactive” each time. In addition, the inhibition entry in assay [10] is “Active”.

As for `CC(C)(O)CCC(=O)[C@@](C)(O)[C@H]1[C@H](O)C[C@@]2(C)[C@@H]3CC=C4[C@@H](C[C@H](O)C(=O)C4(C)C)[C@]3(C)C(=O)C[C@]12C`, the IC50 in the assay with MCF7 [1] (read-out: IC50) worked out at 5130 nM. Besides, the inhibition result in assay [11], in [12], in [13], in assay [14], in [15] and in [16] was “inactive” throughout. Moreover, the inhibition entry in assay [17] is “inactive”.

In the case of `CC(=O)OC(C)(C)CCC(=O)[C@](C)(O)[C@H]1[C@H](O)C[C@@]2(C)[C@@H]3CC=C4[C@@H](C[C@H](O)C(=O)C4(C)C)[C@]3(C)C(=O)C[C@]12C` [23,24-DIHYDROCUCURBITACIN B], the half-inhibitory concentration (IC50) in the assay with MCF7 [1] (read-out: IC50) came to 46300 nM. For the same molecule, the inhibition result in [11], in [12], in [13], in assay [14], in assay [15] and in assay [16] was “inactive” throughout. The inhibition entry in assay [17] was “inactive”.

For the molecule `CC1=C(O)C(=O)C=C2C1=CC=C1[C@@]2(C)CC[C@@]2(C)[C@@H]3C[C@](C)(C(=O)O)CC[C@]3(C)CC[C@]12C` [CELASTROL], the IC50 in the assay with MCF7 [1] (read-out: IC50) amounted to 153 nM. In addition, the result with MCF7 [18] and with MCF7 [19] was Active.

Turning to `CC(=O)OC(C)(C)/C=C/C(=O)[C@](C)(O)[C@H]1[C@H](O)C[C@@]2(C)[C@@H]3CC=C4[C@H](C[C@H](O)C(=O)C4(C)C)[C@]3(C)C(=O)C[C@]12C` [CUCURBITACIN B], the IC50 with MCF7 [1] (read-out: IC50) came to 41.3 nM. In addition, the inhibition result in [11], in [12], in assay [13], in assay [14], in [15] and in assay [16] was “inactive” each time. The inhibition result in assay [17] is “inactive”.

In the case of `CC(C)(O)/C=C/C(=O)[C@](C)(O)[C@H]1[C@H](O)C[C@@]2(C)[C@@H]3CC=C4[C@@H](C[C@H](O)C(=O)C4(C)C)[C@]3(C)C(=O)C[C@]12C` [CUCURBITACIN D], the IC50 in the assay on MCF7 [1] (read-out: IC50) was 598 nM. The inhibition result in assay [2], in [3], in [4] and in [5] was “Dose-dependent effect” throughout. The result in the assay with MCF7 [6] and in the assay on MCF7 [7] was inactive. For the same molecule, in [10], the inhibition entry was “inactive”.

As for `CC(=O)OC(C)(C)/C=C/C(=O)[C@](C)(O)[C@H]1[C@H](O)C[C@@]2(C)[C@@H]3CC=C4[C@@H](C=C(O)C(=O)C4(C)C)[C@]3(C)C(=O)C[C@]12C` [CUCURBITACIN E], in the assay with MCF7 [1], the IC50 was 55 nM. For the same molecule, the inhibition entry in assay [11], in [12], in assay [13], in assay [14], in assay [15] and in assay [16] was “inactive” in each case. Besides, the inhibition result in [17] is “inactive”.

For the molecule `CC(C)(O)/C=C/C(=O)[C@](C)(O)[C@H]1[C@H](O)C[C@@]2(C)[C@@H]3CC=C4[C@@H](C=C(O)C(=O)C4(C)C)[C@]3(C)C(=O)C[C@]12C` [CUCURBITACIN I], the IC50 with MCF7 [1] (read-out: IC50) turned out to be 60.7 nM. Moreover, the inhibition entry in [11], in assay [12], in assay [13], in assay [14], in [15] and in assay [16] was “inactive” throughout. In addition, in [17], the inhibition entry was “inactive”.

Consider `CC(=O)O[C@@H]1C[C@H]2C(C)(C)C(=O)C=C[C@]2(C)[C@H]2CC[C@@]3(C)[C@H](c4ccoc4)OC(=O)[C@H]4O[C@]43[C@@]21C` [GEDUNIN], for which the IC50 in the assay with MCF7 [1] (read-out: IC50) amounted to 10900 nM. For the same molecule, the result with MCF7 [18] and in the assay with MCF7 [19] was Active. In addition, the inhibition entry in assay [10] is “inactive”. In addition, the inhibition result in assay [20] is “Active”.

Take `COC1=C2C[C@@H](C)C[C@H](OC)[C@H](O)[C@@H](C)/C=C(\C)[C@H](OC(N)=O)[C@@H](OC)/C=C\C=C(/C)C(=O)NC(=CC1=O)C2=O` [GELDANAMYCIN]: the IC50 in the assay on MCF7 [1] (read-out: IC50) was determined as 42.7 nM. In addition, the result in the assay with MCF7 [18] and in the assay with MCF7 [19] was Active.
